Tests used:
[1] = Solid stability of compositions 1-11 and compounds 1A-11A: main component content over time under different conditions (Example 37, Table 32); format: physicochemical
Protocol: Compositions 1-11 and compounds 1A-11A were placed at environments of −25° C., 5±3° C., 25±2° C./60±5% RH, 40±2° C./75±5% RH, 60° C. for 0 d, 5 d and 10 d (d refers to day), respectively, and changes of the main component content (the main component content of 0 day was converted to 100%) were measured, the results are shown in Table 32.

[2] = system: chronic cadmium poisoning model rabbits; assay: Cadmium-removing effect by intravenous drip in chronic cadmium poisoning rabbits (Example 18); format: in vivo, New Zealand rabbits; conditions: for Urine β2-microglobulin values: after four weeks of administration
Description: 205 male New Zealand rabbits, 1.8˜2.2 kg, were randomly divided into a blank control group with 25 rabbits and chronic cadmium poisoning groups with a total of 180 rabbits. The model rabbits were ear margin intravenous injected with a mixed solution containing 1.5 μmol/kg CdCl2 and 30 μmol/kg thioethanol (ME) according to weight, once/d for continuous 5 days, and observed for 35 days. After 35 days, qualified rabbits were selected according to weight, including 18 rabbits in the blank group and 162 rabbits in the poisoning group. The 162 rabbits in the poisoning group were randomly divided into a model group, D3 high-dose group, D3 low-dose group, compound 3B high-dose group, compound 3B low-dose group, composition 3 high-dose group, composition 3 low-dose group, composition 3-powder injection high-dose group, composition 3-powder injection low-dose group, with 18 rabbits in each group. Rabbits in the mode group and the blank group were administered by intravenous drip with the same volume of normal saline, with a rate of 30 drops/min for a dripping time of about 2 h, 1 time/d, 5 d/week. After administration on the last day of week 1, week 2 and week 4, the urine of 0 h˜6 h and the urine of 7 h˜24 h of rabbits were respectively collected; the content of cadmium in blood, urine and kidney, and the cadmium-removing rate from blood and kidney were determined, and the results are shown in Table 6.

[3] = 5 ± 3° C., 0 d (0 day content converted to 100%)
[4] = 25 ± 2° C./60 ± 5% RH, 0 d (0 day content converted to 100%)
[5] = 40 ± 2° C./75 ± 5% RH, 0 d (0 day content converted to 100%)
[6] = 60° C., 0 d (0 day content converted to 100%)
[7] = −25° C., 0 d (0 day content converted to 100%)
[8] = 1 w of treatment, high-dose group (D3 433, compound 3B 83.5, composition 3 and composition 3-preparation 108 mg/kg)
[9] = 1 w of treatment, low-dose group (D3 108, compound 3B 21, composition 3 and composition 3-preparation 27 mg/kg)
[10] = 2 w of treatment, high-dose group (D3 433, compound 3B 83.5, composition 3 and composition 3-preparation 108 mg/kg)
[11] = 2 w of treatment, low-dose group (D3 108, compound 3B 21, composition 3 and composition 3-preparation 27 mg/kg)
[12] = 4 w of treatment, high-dose group (D3 433, compound 3B 83.5, composition 3 and composition 3-preparation 108 mg/kg)
[13] = 4 w of treatment, low-dose group (D3 108, compound 3B 21, composition 3 and composition 3-preparation 27 mg/kg)

| Compound | main component content [1, 3] | main component content ([1]; 5 ± 3° C., 5 d) | main component content ([1]; 5 ± 3° C., 10 d) | main component content [1, 4] | main component content ([1]; 25 ± 2° C./60 ± 5% RH, 5 d) | main component content ([1]; 25 ± 2° C./60 ± 5% RH, 10 d) | main component content [1, 5] | main component content ([1]; 40 ± 2° C./75 ± 5% RH, 5 d) | main component content ([1]; 40 ± 2° C./75 ± 5% RH, 10 d) | main component content [1, 6] | main component content ([1]; 60° C., 5 d) | main component content ([1]; 60° C., 10 d) | main component content [1, 7] | main component content ([1]; −25° C., 5 d) | main component content ([1]; −25° C., 10 d) | further results |
| --- | --- | --- | --- | --- | --- | --- | --- | --- | --- | --- | --- | --- | --- | --- | --- | --- |
| O=C([O-])C(CF)N(CC(O)C(O)C(O)C(O)CO)C(=S)[S][Na].[Na+] (stereo not drawn) [Compound 1A] | 100% | 99.5% | 99.1% | 100% | 97.3% | 92.1% | 100% | 83.5% | 81.5% | 100% | 59.4% | 58.7% | 100% | 100.2% | 100.1% |  |
| CC(C)C(C(=O)[O-])N(CC(O)C(O)C(O)C(O)CO)C(=S)[S][Na].[Na+] (stereo not drawn) [Compound 2A] | 100% | 99.5% | 98.1% | 100% | 91.4% | 82.5% | 100% | 94.1% | 90.1% | 100% | 49.9% | 48.8% | 100% | 100.2% | 99.8% |  |
| CSCCC(NCC(O)C(O)C(O)C(O)CO)C(=O)[O-].[Na+] (stereo not drawn) [Compound 3B] |  |  |  |  |  |  |  |  |  |  |  |  |  |  |  | Cadmium in blood [2, 8]: 101.54 ± 13.27 µg/L; Cadmium in kidney [2, 8]: 11.94 ± 3.51 µg/L; Cadmium in blood [2, 9]: 102.21 ± 16.38 µg/L; Cadmium in kidney [2, 9]: 12.03 ± 3.84 µg/L; Cadmium in blood [2, 10]: 73.18 ± 15.27 µg/L; Cadmium in kidney [2, 10]: 12.62 ± 5.37 µg/L; Cadmium in blood [2, 11]: 72.02 ± 16.92 µg/L; Cadmium in kidney [2, 11]: 12.57 ± 3.37 µg/L; Cadmium in blood [2, 12]: 27.92 ± 14.72 µg/L; Cadmium in kidney [2, 12]: 14.02 ± 2.96 µg/L; Cadmium in blood [2, 13]: 28.53 ± 12.62 µg/L; Cadmium in kidney [2, 13]: 13.22 ± 4.20 µg/L; cadmium-removing effect (compared with the model group) ([2]; 21 and 83.5 mg/kg, 1-4 weeks): no cadmium-removing effect; Urine β2-microglobulin values ([2]; high-dose group (D3 433, compound 3B 83.5, composition 3 and composition 3-preparation 108 mg/kg)): 209.42 ± 38.21 ng/L; Urine β2-microglobulin values ([2]; low-dose group (D3 108, compound 3B 21, composition 3 and composition 3-preparation 27 mg/kg)): 213.56 ± 31.76 ng/L |
| O=C([O-])C(CCSCO)N(CC(O)C(O)C(O)C(O)CO)C(=S)[S][Na].[Na+] (stereo not drawn) [Compound 4A] | 100% | 97.6% | 95.3% | 100% | 92.8% | 91.7% | 100% | 83.4% | 80.8% | 100% | 68.0% | 64.7% | 100% | 100.2% | 100.5% |  |
| O=C([O-])CCC(C(=O)[O-])N(CC(O)C(O)C(O)C(O)CO)C(=S)[S][Na].[Na+].[Na+] (stereo not drawn) [Compound 5A] | 100% | 99.6% | 98.7% | 100% | 97.8% | 95.7% | 100% | 97.9% | 91.8% | 100% | 80.3% | 78.7% | 100% | 100.7% | 101.1% |  |
| O=C([O-])C(CC1CCCCC1)N(CC(O)C(O)C(O)C(O)CO)C(=S)[S][Na].[Na+] (stereo not drawn) [Compound 6A] | 100% | 98.8% | 99.1% | 100% | 93.1% | 85.3% | 100% | 91.5% | 91.0% | 100% | 60.4% | 57.8% | 100% | 100.6% | 99.9% |  |
| COc1ccc(CC(C(=O)[O-])N(CC(O)C(O)C(O)C(O)CO)C(=S)[S][Na])cc1.[Na+] (stereo not drawn) [Compound 7A] | 100% | 100.0% | 99.1% | 100% | 99.3% | 98.0% | 100% | 98.7% | 96.5% | 100% | 80.2% | 80.1% | 100% | 100.1% | 100.6% |  |
| O=C([O-])C(Cc1cccs1)N(CC(O)C(O)C(O)C(O)CO)C(=S)[S][Na].[Na+] (stereo not drawn) [Compound 8A] | 100% | 97.9% | 96.2% | 100% | 95.5% | 93.3% | 100% | 94.7% | 89.6% | 100% | 80.4% | 79.7% | 100% | 101.1% | 100.3% |  |
| O=C([O-])C(Cc1cncs1)N(CC(O)C(O)C(O)C(O)CO)C(=S)[S][Na].[Na+] (stereo not drawn) [Compound 9A] | 100% | 97.2% | 96.0% | 100% | 98.9% | 96.0% | 100% | 92.6% | 91.5% | 100% | 84.5% | 79.3% | 100% | 100.7% | 100.5% |  |
| O=C([O-])C(CO)N(CC(O)C(O)C(O)C(O)CO)C(=S)[S][K].[K+] (stereo not drawn) [Compound 10A] | 100% | 99.5% | 98.1% | 100% | 97.0% | 96.1% | 100% | 92.0% | 90.3% | 100% | 82.0% | 79.1% | 100% | 100.5% | 101.4% |  |

Source: patent publication US20250295628A1 (priority 2022, published 2025)
